Measured values: ChEMBL document CHEMBL1149799, “Bioactive peroxides as potential therapeutic agents” (Eur J Med Chem, 2008)
Values after ≈ are worked out from the molar mass of the structure shown. Active and inactive are the calls of the source. No cut-off for these calls is given here.

How the values were obtained:
OVCAR-5 = test: Cytotoxicity against human OVCAR5 cells; type: functional, cell-based
SK-OV-3 = test: Cytotoxicity against human SK-OV-3 cells; type: functional, cell-based
A498 = test: Cytotoxicity against human A498 cells; type: functional
ACHN = test: Cytotoxicity against human ACHN cells; type: functional, cell-based
CAKI-1 = test: Cytotoxicity against human CAKI1 cells; type: functional
SN12C = test: Cytotoxicity against human SN12C cells; type: functional
TK-10 = test: Cytotoxicity against human TK10 cells; type: functional
UO-31 = test: Cytotoxicity against human UO31 cells; type: functional
PC-3 = test: Cytotoxicity against human PC3 cells; type: functional, cell-based; settings: Homo sapiens, PC-3
[1] = Cytotoxicity against human MCF7/ADR-RES cells; type: functional; settings: NCI/ADR-RES
[2] = Cytotoxicity against human RES MDA-MB-231/ATCC cells; type: functional
MDA-N = test: Cytotoxicity against human MDA-N cells; type: functional
BT-549 = test: Cytotoxicity against human BT-549 cells; type: functional
T47D = test: Cytotoxicity against human T47D cells; type: functional
A549 = test: Cytotoxicity against human A549 cells; type: functional, cell-based; settings: Homo sapiens, A549
HCT-116 = test: Cytotoxicity against human HCT116 cells; type: functional, cell-based
MCF7 = test: Cytotoxicity against human MCF7 cells; type: functional, cell-based; settings: Homo sapiens, MCF7; for GI50: read-out: GI50
NCI-H460 = test: Cytotoxicity against human NCI-H460 cells; type: functional, cell-based; settings: Homo sapiens, NCI-H460; for GI50: read-out: GI50
DU-145 = test: Cytotoxicity against human DU145 cells; type: functional, cell-based; settings: Homo sapiens, DU-145; read-out: GI50
786-0 = test: Cytotoxicity against human renal 7860 cells by soft agar assay; type: functional
[3] = Cytotoxicity against human CFUGM; type: functional; settings: CFU-GM
[4] = Cytotoxicity against mouse Ehrlich Ascites carcinoma by […] assay; type: functional
[5] = Cytotoxicity against human CCRF-GEM cells; type: functional
[6] = Cytotoxicity against human HB60 cells; type: functional
[7] = Cytotoxicity against human K652 cells; type: functional
MOLT-4 = test: Cytotoxicity against human MOLT4 cells
[8] = Cytotoxicity against human RPMI8266 cells; type: functional
EKVX = test: Cytotoxicity against human EKVX cells; type: functional
HOP-62 = test: Cytotoxicity against human HOP62 cells; type: functional
HOP-92 = test: Cytotoxicity against human HOP92 cells; type: functional
NCI-H23 = test: Cytotoxicity against human NCI-H23 cells; type: functional, cell-based
NCI-H322M = test: Cytotoxicity against human NCI-H322M cells; type: functional
COLO 205 = test: Cytotoxicity against human COLO205 cells
HCC 2998 = test: Cytotoxicity against human HCC2998 cells; type: functional, cell-based
HCT-15 = test: Cytotoxicity against human HCT15 cells; type: functional, cell-based
HT-29 = test: Cytotoxicity against human HT29 cells; type: functional
KM12 = test: Cytotoxicity against human KM12 cells; type: functional, cell-based
SW-620 = test: Cytotoxicity against human SW620 cells; type: functional
SNB-19 = test: Cytotoxicity against human SNB19 cells; type: functional
U-251 = test: Cytotoxicity against human U251 cells; type: functional, cell-based
LOX IMVI = test: Cytotoxicity against human LOXI MVI cells; type: functional, cell-based
SK-MEL-5 = test: Cytotoxicity against human SK-MEL-5 cells; type: functional
SK-MEL-2 = test: Cytotoxicity against human SK-MEL-2 cells; type: functional
SK-MEL-28 = test: Cytotoxicity against human SK-MEL-28 cells; type: functional
UACC-257 = test: Cytotoxicity against human UACC257 cells; type: functional
UACC-62 = test: Cytotoxicity against human UACC62 cells; type: functional
IGROV-1 = test: Cytotoxicity against human IGROV1 cells; type: functional
OVCAR-3 = test: Cytotoxicity against human OVCAR-3 cells; type: functional, cell-based
OVCAR-4 = test: Cytotoxicity against human OVCAR4 cells; type: functional, cell-based
P388 = test: Cytotoxicity against mouse P388 cells at 0.5 ug/mL; type: functional
HCT-8 = test: Cytotoxicity against human HCT8 cells at 10 ug/mL; type: functional
OVCAR-8 = test: Cytotoxicity against human OVCAR8 cells; type: functional, cell-based
RXF 393 = test: Cytotoxicity against human RXF393 cells; type: functional
MDA-MB-435 = test: Cytotoxicity against human MDA-MB-435 cells; type: functional
[9] = Cytotoxicity against mouse Ehrlich Ascites carcinoma by clonogenic assay; type: functional
SF-295 = test: Cytotoxicity against human SF295 cells; type: functional, cell-based
SNB-75 = test: Cytotoxicity against human SNB75 cells; type: functional, cell-based
SNU1 = test: Cytotoxicity against human SNU1 cells; type: functional, cell-based
SNU-354 = test: Cytotoxicity against human SNU354 cells; type: functional, cell-based
[10] = Cytotoxicity against human SNUC4 cells; type: functional, cell-based; settings: SNU-C4
[11] = Cytotoxicity against mouse sarcoma 180 cells; type: functional, cell-based
[12] = biological target: Aldo-keto reductase family 1 member B1 (Rattus norvegicus, UniProt P07943); test: Inhibition of rat lens aldose reductase
SF-268 [13] = test: Cytotoxicity against human SF268 cells; type: functional, cell-based
HeLa = test: Cytotoxicity against human HeLa cells; type: functional, cell-based
MIA PaCa-2 = test: Cytotoxicity against human MIA-PaCa2 cells
SF-268 [14] = test: Cytotoxicity against human SF268 cells at 30 uM; type: functional, cell-based
K562 = test: Cytotoxicity against human K562 cells at 10 ug/mL; type: functional
Jurkat = test: Cytotoxicity against human Jurkat cells at 10 ug/mL; type: functional
[15] = Cytotoxicity against human WM1341 cells at 10 ug/mL; type: functional
HL-60 = test: Cytotoxicity against human HL60 cells at 10 ug/mL; type: functional
[16] = Cytotoxicity against human RPM18226 cells at 10 ug/mL; type: functional; settings: RPMI-8226

C[C@H]1[C@H](O[C@H]2O[C@@H]3O[C@]4(C)CC[C@H]5[C@H](C)CC[C@@H]([C@H]2C)[C@@]35OO4)O[C@@H]2O[C@]3(C)CC[C@H]4[C@H](C)CC[C@@H]1[C@@]24OO3
GI50 (OVCAR-5): > 25 µg/mL | GI50 (SK-OV-3): > 25 µg/mL | GI50 (A498): > 25 µg/mL | GI50 (ACHN): 3.5 µg/mL | GI50 (CAKI-1): > 25 µg/mL | GI50 (SN12C): > 16.8 µg/mL | GI50 (TK-10): 1.7 µg/mL | GI50 (UO-31): 1.7 µg/mL | GI50 (PC-3): 0.19 µg/mL | GI50 [1]: 1.45 µg/mL | GI50 [2]: > 25 µg/mL | GI50 (MDA-N): 3.68 µg/mL | GI50 (BT-549): 1.3 µg/mL | GI50 (T47D): 1.2 µg/mL | GI50 (A549): 18700 nM | GI50 (HCT-116): 710 nM | GI50 (MCF7): 1.51 µg/mL | GI50 (NCI-H460): > 25000 nM | GI50 (DU-145): > 25 µg/mL | GI50 (786-0): 22 µg/mL | IC50 [3]: 52500 nM | IC50 [4]: 31200 nM | GI50 [5]: 7510 nM | GI50 [6]: 610 nM | GI50 [7]: 1040 nM | GI50 (MOLT-4): 2370 nM | GI50 [8]: 660 nM | GI50 (EKVX): 2160 nM | GI50 (HOP-62): > 25000 nM | GI50 (HOP-92): 3660 nM | GI50 (NCI-H23): 1150 nM | GI50 (NCI-H322M): > 25000 nM | GI50 (COLO 205): 1170 nM | GI50 (HCC 2998): > 25000 nM | GI50 (HCT-15): 740 nM | GI50 (HT-29): 1320 nM | GI50 (KM12): 880 nM | GI50 (SW-620): 1160 nM | GI50 (SNB-19): > 25000 nM | GI50 (U-251): > 25000 nM | GI50 (LOX IMVI): 1 µg/mL | GI50 (SK-MEL-5): > 3.6 µg/mL | GI50 (SK-MEL-2): 16.9 µg/mL | GI50 (SK-MEL-28): > 25 µg/mL | GI50 (UACC-257): > 25 µg/mL | GI50 (UACC-62): 2 µg/mL | GI50 (IGROV-1): > 25 µg/mL | GI50 (OVCAR-3): 8.2 µg/mL | GI50 (OVCAR-4): 8.6 µg/mL

CCCCCCCCCCCCCCC[C@]1(C)C[C@](C)(CC(=O)O)OO1
inhibition at 0.5 µg/mL (P388): 90% | inhibition at 10 µg/mL (HCT-8): 90%

CCCCCCCCCCCCCCCC[C@]1(C)C[C@](C)(CC(=O)O)OO1
inhibition at 0.5 µg/mL (P388): 90% | inhibition at 10 µg/mL (HCT-8): 90%

C[C@H]1[C@H](O[C@@H]2O[C@@H]3O[C@]4(C)CC[C@H]5[C@H](C)CC[C@@H]([C@H]2C)[C@@]35OO4)O[C@@H]2O[C@]3(C)CC[C@H]4[C@H](C)CC[C@@H]1[C@@]24OO3
GI50 (OVCAR-5): 390 nM | GI50 (OVCAR-8): 90 nM | GI50 (SK-OV-3): 480 nM | GI50 (A498): 11600 nM | GI50 (ACHN): 100 nM | GI50 (CAKI-1): 280 nM | GI50 (RXF 393): 470 nM | GI50 (SN12C): 280 nM | GI50 (TK-10): 240 nM | GI50 (UO-31): 63 nM | GI50 (PC-3): 15 nM | GI50 [1]: 220 nM | GI50 [2]: 400 nM | GI50 (MDA-MB-435): 61 nM | GI50 (MDA-N): 590 nM | GI50 (BT-549): 58 nM | GI50 (T47D): 30 nM | GI50 (A549): 98 nM | GI50 (HCT-116): 19 nM | GI50 (MCF7): 110 nM | GI50 (NCI-H460): 68 nM | GI50 (DU-145): 5100 nM | GI50 (786-0): 370 nM | IC50 [3]: 3600 nM | IC50 [9]: 55600 nM | IC50 [4]: 3600 nM | GI50 [5]: 45 nM | GI50 [6]: 28 nM | GI50 [7]: 68 nM | GI50 (MOLT-4): 57 nM | GI50 [8]: 13 nM | GI50 (EKVX): 76 nM | GI50 (HOP-62): 10200 nM | GI50 (HOP-92): 121 nM | GI50 (NCI-H23): 46 nM | GI50 (NCI-H322M): 10800 nM | GI50 (COLO 205): 44 nM | GI50 (HCC 2998): 450 nM | GI50 (HCT-15): 24 nM | GI50 (HT-29): 50 nM | GI50 (KM12): 33 nM | GI50 (SW-620): 43 nM | GI50 (SF-295): 590 nM | GI50 (SNB-19): 1710 nM | GI50 (SNB-75): 220 nM | GI50 (U-251): 65 nM | GI50 (LOX IMVI): 30 nM | GI50 (SK-MEL-5): 53 nM | GI50 (SK-MEL-2): 500 nM | GI50 (SK-MEL-28): 12300 nM | GI50 (UACC-257): 93 nM | GI50 (UACC-62): 81 nM | GI50 (IGROV-1): 1050 nM | GI50 (OVCAR-3): 460 nM | GI50 (OVCAR-4): 290 nM

CC(C)[C@@H](C)/C=C/[C@@H](C)[C@H]1CC[C@@H]2[C@]1(C)CC[C@H]1[C@]23C=C[C@]2(C[C@@H](O)CC[C@]12C)OO3 [ERGOSTEROL PEROXIDE]
IC50 (SNU1): 18700 nM | IC50 (SNU-354): 158000 nM | IC50 [10]: 84600 nM | IC50 [11]: 74100 nM | IC50 [12]: 35900 nM

CC(=C/C(=O)O)/C=C/C=C(C)/C=C/[C@@H]1C=C2C(C)(C)CCC[C@]2(C)OO1
IC50 (MCF7): 21.9 µg/mL (≈ 61.1 µM) | IC50 (SF-268 [13]; sf-268): Not Active | IC50 (NCI-H460): 21 µg/mL (≈ 58.6 µM) | IC50 (HeLa): 19.8 µg/mL (≈ 55.2 µM) | IC50 (MIA PaCa-2): 13.9 µg/mL (≈ 38.8 µM) | Activity (SF-268 [14]): inactive

CC(C)[C@@H](C)/C=C/[C@@H](C)[C@H]1CC[C@@H]2[C@]1(C)CC[C@H]1[C@]23C=C[C@]2(C[C@@H](O[C@@H]4O[C@H](CO)[C@@H](O)[C@H](O)[C@H]4O)CC[C@]12C)OO3
inhibition at 10 µg/mL (K562): 10% | inhibition at 10 µg/mL (Jurkat): 10% | inhibition at 10 µg/mL [15]: 10% | inhibition at 10 µg/mL (HL-60): 10% | inhibition at 10 µg/mL [16]: 10%

CC(=C/C(=O)O)/C=C/C=C(\C)[C@@H]1C=C2C(C)(C)CCC[C@]2(C)OO1
IC50 (MCF7): 2.7 µg/mL (≈ 8.12 µM) | IC50 (SF-268 [13]; Homo sapiens, SF-268, read-out: IC50): 3.5 µg/mL (≈ 10.5 µM) | IC50 (NCI-H460): 2.1 µg/mL (≈ 6.32 µM) | IC50 (HeLa): 2 µg/mL (≈ 6.02 µM) | IC50 (MIA PaCa-2): 1.7 µg/mL (≈ 5.11 µM)
